Results published in the supplement of paper PMC11061612.

Legend:
Experiment in all cases: Bliss excess, mean over the matrix (fraction); higher = more synergy
[1] = system: SKN-3 (Head and Neck Carcinoma)
Summary of the method: (§1)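 Cell lines grown in DMEM/F12 or RPMI with 10% FBS were plated in 1536-well plates and held 24 hours at 37°C, 5% CO2 before 72 hours of exposure to two-drug dose matrices, with DMSO typically at 0.2%. CellTiter-Glo 2.0 luminescence gave viability, which was converted to inhibition. Vehicle wells were set to 0 and blank wells to 1. Combination Emax is the second-highest inhibition in the matrix, and Bliss excess is the observed combination effect minus the expected EA + EB − EA·EB, where EA and EB are the single-agent effects.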

[2] = system: MCF7 (Breast Carcinoma)
Summary of the method: as §1

[3] = system: HCC1143 (Breast Carcinoma)
Summary of the method: as §1

[4] = system: HOP-92 (Non-Small Cell Lung Carcinoma)
Summary of the method: as §1

[5] = system: HCC38 (Breast Carcinoma)
Summary of the method: as §1

[6] = system: CS1 (Chondrosarcoma)
Summary of the method: as §1

[7] = system: YT (Other Blood Carcinomas)
Summary of the method: as §1

[8] = system: HLE (Hepatocellular Carcinoma)
Summary of the method: as §1

[9] = system: U-118-MG (Low Grade Glioma)
Summary of the method: as §1

[10] = system: DOK (Oral Cavity Carcinoma)
Summary of the method: as §1

[11] = system: NOMO-1 (Acute Myeloid Leukemia)
Summary of the method: as §1

[12] = system: MES-SA (Other Solid Carcinomas)
Summary of the method: as §1

[13] = system: SW948 (Colorectal Carcinoma)
Summary of the method: as §1

[14] = system: NCI-H1688 (Small Cell Lung Carcinoma)
Summary of the method: as §1

[15] = system: HCT-116 (Colorectal Carcinoma)
Summary of the method: as §1

[16] = system: 647-V (Bladder Carcinoma)
Summary of the method: as §1

[17] = system: JHH-6 (Hepatocellular Carcinoma)
Summary of the method: as §1

[18] = system: SK-UT-1 (Other Solid Carcinomas)
Summary of the method: as §1

[19] = system: PA-TU-8902 (Pancreatic Carcinoma)
Summary of the method: as §1

Row | Compound | Bliss excess [1] | Bliss excess [2] | Bliss excess [3] | Bliss excess [4] | Bliss excess [5] | Bliss excess [6] | Bliss excess [7] | Bliss excess [8] | Bliss excess [9] | Bliss excess [10] | Bliss excess [11] | Bliss excess [12] | Bliss excess [13] | Bliss excess [14] | Bliss excess [15] | Bliss excess [16] | Bliss excess [17] | Bliss excess [18] | Bliss excess [19]
1 | COc1nnc2ccc(N3CCC(c4ccc(OCCN5CCN(C)C(=O)[C@H]5C)cc4)CC3)nn12 [AZD5153] + C[C@@H]1COCCN1C2=NC(=NC(=C2)C3(CC3)[S@](=N)(=O)C)C4=C5C=CNC5=NC=C4 [AZD6738] (first compound max 1 µM, 7x7, partner max 10 µM) | 0.0128 | -0.0228 | -0.0036 | 0.0246 | -0.0182 | -0.0559 | -0.0687 | 0.0608 | 0.0267 | 0.008 | -0.0324 | 0.0781 | -0.0493 | 0.0719 | -0.0049 | 0.029 | -0.0111 | 0.0401 | 0.0565
2 | Cc1nc(Nc2ncc(C(=O)Nc3c(C)cccc3Cl)s2)cc(N2CCN(CCO)CC2)n1 [Dasatinib] + CC(=O)Nc1cccc(-n2c(=O)n(C3CC3)c(=O)c3c(Nc4ccc(I)cc4F)n(C)c(=O)c(C)c32)c1 [Trametinib] (first compound max 2 µM, 7x7, partner max 1 µM) | 0.004 | -0.0601 | 0.0293 | 0.113 | -0.0277 | -0.022 | -0.0521 | 0.0283 | -0.0736 | 0.0288 | -0.126 | -0.0311 | -0.008 | -0.0122 | 0.0991 | -0.002 | 0.0847 | -0.0255 | 0.0404
3 | C[C@@H](c1ccc2nccn2c1)n1nnc2ncc(-c3cnn(C)c3)nc21 [Savolitinib] + CC1(C)CCC(CN2CCN(c3ccc(C(=O)NS(=O)(=O)c4ccc(NCC5CCOCC5)c([N+](=O)[O-])c4)c(Oc4cnc5[nH]ccc5c4)c3)CC2)=C(c2ccc(Cl)cc2)C1 [Venetoclax] (first compound max 1 µM, 7x7, partner max 1 µM) | -0.0543 | -0.042 | -0.0361 | -0.0181 | -0.0111 | -0.0056 | -0.0346 | -0.0232 | -0.0416 | -0.0578 | -0.0561 | -0.0736 | -0.0488 | -0.047 | -0.0357 | -0.057 | -0.0918 | -0.0234 | -0.11
4 | CS(=O)(=O)CCNCc1ccc(-c2ccc3ncnc(Nc4ccc(OCc5cccc(F)c5)c(Cl)c4)c3c2)o1 [Lapatinib] + NC1(c2ccc(-c3nc4ccn5c(=O)[nH]nc5c4cc3-c3ccccc3)cc2)CCC1 [MK-2206] (first compound max 10 µM, 7x7, partner max 10 µM) | -0.0508 | -0.0702 | -0.0213 | 0.0328 | 0.037 | -0.0142 | -0.0321 | -0.0136 |  | 0.0212 | 0.0427 |  | 0.049 | -0.0202 | -0.0347 |  |  | 0.0057 | -0.0237
5 | NC1(C(=O)N[C@@H](CCO)c2ccc(Cl)cc2)CCN(c2ncnc3[nH]ccc23)CC1 [Capivasertib] + CC(=O)c1c(C)c2cnc(Nc3ccc(N4CCNCC4)cn3)nc2n(C2CCCC2)c1=O [Palbociclib] (first compound max 10 µM, 7x7, partner max 10 µM) | -0.0502 | 0.049 | 0.0317 | 0.0322 | -0.023 | 0.016 | -0.0344 | -0.002 | -0.0154 | 0.016 | 0.0378 | -0.0017 | -0.0442 | 0.017 | 0.01 | 0.0129 | -0.0503 | -0.0009 | -0.0606
6 | COc1nnc2ccc(N3CCC(c4ccc(OCCN5CCN(C)C(=O)[C@H]5C)cc4)CC3)nn12 [AZD5153] + C=CCn1c(=O)c2cnc(Nc3ccc(N4CCN(C)CC4)cc3)nc2n1-c1cccc(C(C)(C)O)n1 [AZD1775] (first compound max 1 µM, partner max 1 µM) | -0.0342 | -0.0356 | -0.0047 | -0.0301 | -0.107 | -0.0172 | -0.0842 | 0.0069 | -0.0235 | -0.0239 | -0.0364 | -0.0334 | -0.11 | -0.0604 | -0.0367 | -0.0448 | -0.048 | -0.0323 | 0.0421
7 | C=CCn1c(=O)c2cnc(Nc3ccc(N4CCN(C)CC4)cc3)nc2n1-c1cccc(C(C)(C)O)n1 [AZD1775] + C1CN(CCC1(C(=O)N[C@@H](CCO)C2=CC=C(C=C2)Cl)N)C3=NC=NC4=C3C=CN4 [Capivasertib] (first compound max 3 µM, partner max 3 µM) | -0.0344 | 0.0075 | -0.05 | 0.0152 | -0.105 | -0.0394 | -0.0938 | -0.0734 | -0.0726 | 0.0014 | 0.0076 |  | -0.003 | -0.0409 | 0.0051 | 0.0493 | -0.0294 | -0.0037 | -0.0609
8 | Cn1cnc2c(F)c(Nc3ccc(Br)cc3Cl)c(C(=O)NOCCO)cc21 [Selumetinib] + CCN(CCO)CCCOc1ccc2c(Nc3cc(CC(=O)Nc4cccc(F)c4)[nH]n3)ncnc2c1 [AZD2811] (first compound max 10 µM, 7x7, partner max 1 µM) | -0.0166 | -0.0309 | 0.0298 | -0.0193 | -0.0748 | -0.0043 | -0.0336 | -0.0029 | -0.027 | -0.0864 | 0.0333 | -0.0248 | 0.0022 | -0.0377 | 0.0289 | -0.0038 | -0.0305 | 0.0021 | 0.0087
9 | CN(C)CCCOc1ccc(-c2ccc3ncc4c(c3c2)n(C2CCOCC2)c(=O)n4C)cn1 [AZD0156] + O=C(c1cc(Cc2n[nH]c(=O)c3ccccc23)ccc1F)N1CCN(C(=O)C2CC2)CC1 [Olaparib] (first compound max 3 µM, partner max 3 µM) | -0.0165 | 0.0509 | -0.0194 | 0.0111 | 0.0454 | 0.0148 | 0.0265 | -0.0129 | 0.0122 | 0.0549 | 0.0887 | 0.142 | -0.0231 | -0.0122 | 0.129 | 0.0562 | -0.019 | 0.0429 | -0.0456
10 | COc1nnc2ccc(N3CCC(c4ccc(OCCN5CCN(C)C(=O)[C@H]5C)cc4)CC3)nn12 [AZD5153] + CC1(C)CCC(CN2CCN(c3ccc(C(=O)NS(=O)(=O)c4ccc(NCC5CCOCC5)c([N+](=O)[O-])c4)c(Oc4cnc5[nH]ccc5c4)c3)CC2)=C(c2ccc(Cl)cc2)C1 [Venetoclax] (first compound max 1 µM, 7x7, partner max 1 µM) | -0.0576 | -0.0183 | -0.0247 | -0.0242 | -0.0324 | -0.054 | -0.0496 | -0.0522 | -0.0349 | -0.0696 | 0.0051 | -0.06 | -0.0016 | -0.003 | -0.0614 | -0.0455 | -0.0443 | -0.0459 | -0.0908
11 | COc1nnc2ccc(N3CCC(c4ccc(OCCN5CCN(C)C(=O)[C@H]5C)cc4)CC3)nn12 [AZD5153] + Cc1c2c(nn1C)CSCc1cc(n(C)n1)CSc1cc(c3ccccc3c1)OCCCc1c(C(=O)O)n(C)c3c-2c(Cl)ccc13 [AZD5991] (first compound max 1 µM, 7x7, partner max 1 µM) | -0.0234 | -0.0003 | 0.0412 | -0.001 | -0.0019 | -0.0342 | -0.0316 | 0.0047 | -0.0341 | -0.0051 | 0.0355 | -0.0125 | -0.0482 | 0.0155 | -0.0049 | -0.0135 | -0.0727 | -0.0031 | -0.0316
12 | COc1nnc2ccc(N3CCC(c4ccc(OCCN5CCN(C)C(=O)[C@H]5C)cc4)CC3)nn12 [AZD5153] + Cn1cnc2c(F)c(Nc3ccc(Br)cc3Cl)c(C(=O)NOCCO)cc21 [Selumetinib] (first compound max 1 µM, 7x7, partner max 10 µM) | -0.019 | -0.0307 | 0.0561 | 0.0604 | -0.0392 | 0.01 | -0.0383 | 0.0073 | -0.016 | -0.0297 | 0.0443 | 0.0199 | -0.0006 | -0.0216 | -0.029 | 0.0604 | 0.0053 | 0.0089 | -0.0869
13 | NC1(C(=O)N[C@@H](CCO)c2ccc(Cl)cc2)CCN(c2ncnc3[nH]ccc23)CC1 [Capivasertib] + Cn1cnc2c(F)c(Nc3ccc(Br)cc3Cl)c(C(=O)NOCCO)cc21 [Selumetinib] (first compound max 10 µM, 7x7, partner max 10 µM) | -0.0759 | -0.0332 | -0.0014 | 0.003 | 0.0116 | 0.0373 | -0.0041 | 0.0365 | 0.0071 | 0.0518 | 0.0099 | -0.0017 | -0.0554 | 0.0549 | 0.0512 | -0.0134 | -0.0262 | 0.0843 | 0.0181
14 | Cn1cnc2c(F)c(Nc3ccc(Br)cc3Cl)c(C(=O)NOCCO)cc21 [Selumetinib] + CC(C)n1c(=O)n(C)c2cnc3cc(F)c(-c4ccc(OCCCN5CCCCC5)nc4)cc3c21 [AZD1390] (first compound max 10 µM, 7x7, partner max 0.3 µM) | -0.0318 | -0.0452 | 0.013 | -0.0112 | -0.0306 | -0.0172 | -0.03 | -0.0325 | -0.0587 | 0.021 | -0.0617 | -0.0335 | -0.0174 | -0.016 | -0.0129 | -0.0481 | -0.0769 | -0.0066 | 0.0043
15 | Cc1nc(-c2cn3c(n2)-c2ccc(-c4cnn(C(C)(C)C(N)=O)c4)cc2OCC3)n(C(C)C)n1 [Taselisib] + O=C(Nc1ccc2[nH]nc(-c3ccncc3)c2c1)[C@@H]1CCN(CC(=O)N2CCN(c3ccc(-c4ncccn4)cc3)CC2)C1 [SCH772984] (first compound max 10 µM, 7x7, partner max 5 µM) |  |  |  |  | 0.0325 | 0.0942 | -0.0084 | 0.0366 |  | -0.0218 | 0.141 |  | 0.032 |  | 0.138 |  |  | 0.104 | 
16 | CS(=O)(=O)CCNCc1ccc(-c2ccc3ncnc(Nc4ccc(OCc5cccc(F)c5)c(Cl)c4)c3c2)o1 [Lapatinib] + Cn1cnc2c(F)c(Nc3ccc(Br)cc3Cl)c(C(=O)NOCCO)cc21 [Selumetinib] (first compound max 10 µM, 7x7, partner max 10 µM) |  |  |  |  | -0.0168 | -0.0337 | 0.0147 | 0.0068 |  | -0.113 | -0.0346 |  | -0.0086 |  | -0.0864 |  |  | 0.0151 | 
